# Assay results: US11185539B2 (priority 2017, dated 2021)
# What was measured:
# [1] = test system: C57BL/6 mice with angiotensin II-induced diastolic heart failure; assay: Echocardiography in murine model of angiotensin II-induced cardiac fibrotic disease (two weeks); assay type: in vivo; details: i.p. every other day, Bufalin 0.5, Lycorine 4.5, Anisomycin 10, Gitoxigenin 0.01 mg/kg, day 14
# Experimental: Diastolic heart failure (HF) was induced in C57BL/6 mice via implantation of angiotensin II filled minipumps. Male C57BL/6 mice 8-10 weeks old were used in the present invention being based on a C57BL/6N-background (Charles River, Germany).
# For implantation of angiotension II filled minipumps, Angiotensin-II is applied by osmotic minipumps for two weeks (Alzet® [Modell 1001]). The recommended dose amounts for 1.5 or 3.0 mg/kg/per day. The minipumps are filled under sterile conditions with Angiotensin-II or with isotonic saline solution functioning as a control substance. Implantation takes place under intraperitoneal injection anaesthesia. […] Mice are then fixed on a pre-heated operating table and are provided with Bepanthen eye salve against drying out of the conjunctives. The operating field is located in the right caudal third of the back. It is shaved and desinfected with Braunol, afterwards it is coated with a 0.5% Lidocain-solution. After a period of one hour implantation can be started. The skin is cut through vertical to the back line, preferably the length is one centimeter. A pocket from the cutting line to cranial is subcutaneously formed. Herein, the minipumps are injected. Afterwards, the skin is then closed with a 5-0 Prolene string with interrupted sutures. Then, the closed wound is coated again with Braunol. For preventing hypothermia mice wake up in their cages, which are placed up to one-third on a terrarium-warming mat with regulated temperatures of 37°. Surgery amounts for 5 minutes/per animal.
# Next, the natural compounds (Bufalin, Gitoxigenin, Lycorine, and Anisomycin) were injected intraperitoneally every other day during two consecutive weeks starting two days after the operation (see FIG. 6). DMSO was also injected into C57BL/6 mice with induced cardiac remodeling as a control. Cardiac function was assessed echocardiographically and fibrosis-development via collagen staining with picosirius-red in histological sections of the hearts (Example 4).
# Diastolic HF was induced in C57BL/6 mice and the natural compounds were injected as indicated in Example 3. Fourteen days after the operation, cardiac function of the mice was assessed echocardiographically (n=9-15 per group) by treating the mice with said compounds (Bufalin: 0.5 mg/kg, Lycorine 4.5 mg/kg, Anisomycin: 10 mg/kg and Gitoxigenin: 0.01 mg/kg). A decrease of the Myocardial Performance Index (MPI) as well as a reduction of the isovolumetric relaxation time (IVRT) and an increase in E to A peak ratio (E/A) (the ratio of the early (E) to late (A) ventricular filling velocities as a marker of the function of the left ventricle of the heart) indicate improvement of both global (MPI) and diastolic (IVRT and E/A) function of the heart (see FIGS. 7 and 9).
# [2] = test system: primary human cardiac fibroblasts (HCFs); assay: Proliferation of primary human cardiac fibroblasts, BrdU-ELISA; assay type: cell-based; details: 24 h; for proliferation of HCFs (derivative screen): 10 μM, DMSO solvent control; for proliferation of primary HCFs: 0.1, 1, 10 μM (Lycorine 1, 5, 10 μM), DMSO control
# Experimental: HCFs were incubated with 0.1 μM, 1 μM and 10 μM Bufalin, Gitoxigenin, Anisomycin and Geldanamycin as well as with 1 μM, 5 μM and 10 μM Lycorine for 24 h and proliferation of HCFs was measured by BrdU-ELISA (see FIG. 1). Due to major drawbacks as a drug candidate, Geldanamycin was not included in the follow-up studies, in particular in the in vivo experiments.
# HCFs and HL-1 cells were treated with Bufalin, Gitoxigenin, Lycorine and Anisomycin for 24 h with the same concentrations as indicated in Example 1 and proliferation of HCFs and cardiomyocyte cell line HL-1 cells was measured by BrdU-ELISA, DMSO refers as a control (see FIG. 2B, 3B, 4B, 5B). The cell proliferation ELISA is a colorimetric alternative to quantitate cell proliferation based on the measurement of BrdU incorporation during DNA synthesis in proliferating cells. After its incorporation into DNA, BrdU is detected by immunoassay by using antibodies being highly specific for BrdU. First, HCFs and/or HL-1 cells are cultured together with various dilutions of test substances (e.g. mitogens, growth factors, cytokines and test compounds such as Bufalin, Gitoxigenin, Lycorine and Anisomycin as mentioned above etc.) in a 96-well in a final volume of 100 μl/well in a humified atmosphere of 37° C. Afterwards, 10 μl/well BrdU labeling solution is added to the cells being cultured in 100 μl/well (final concentration: 10 μM BrdU). Then, cells were re-incubated for additional 2 to 24 h at 37° C. Next, labeling solution is removed and 200 μl/well FixDenat is added to the cells and incubated for 30 min at 15 to 25° C. Then, 100 μl/well anti-BrdU-POD working solution is added and incubated for approximately 90 min, after FixDenat is removed. Next, antibody conjugate is removed and wells are washed with 200 μl-300 μl/well Washing solution (PBS, 1×). After the washing solution is removed, 100 μl/well Substrate solution is added and it is incubated again until color development is sufficient for photometric detection. Further, HCFs were treated with said compounds (Lycorine: 5 μM, Bufalin: 1 μM, Gitoxigenin: 1 μM and Anisomycin: 1 μM) for 24 h as indicated again and subjected to FACS analysis after Annexin-7AAD-staining (see FIG. 2C, 3C, 4C, 5C). After the treatment with said compounds, annexin-7AAD-staining starts with inducing apoptosis in HCFs by a desired method, known to the person skilled in the art, a negative control (w/o induction and staining) and a positive control (f. ex. 500 μM H2O2 or 3 μM Staurosporin) is also needed. Then, the medium with HCFs is transferred into a falcon, washed with PBS and trypsinized. Everything is centrifuged for 5 min at 300×g and then the supernatant is aspirated. The pellet is re-suspended in 200 μl Annexin Red/7AAD Working Solution (1:20, 5 μl Annexin Red/7AAD+195 μl 1× Assay Buffer) and transferred into an Easy Cap Eppendorf tube. After incubation of 15 min at 37° C., it is centrifuged at room temperature (RT) for 5 min at 300×g. Then, the supernatant is aspirated, the pellet washed once with 200 μl 1× Assay Buffer and centrifuged again at RT for 5 min at 300×g. Again, the supernatant is aspirated and the pellet is re-suspended in 200 μl Annexin Red/7AAD working solution and incubated again at RT for 5 min in the dark. Samples are now ready for acquisition on a flow cytometer (blue and red laser).
# The cells were incubated for 24 h with 10 μM Bufalin and Lycorine and with 10 μM derivatives of Bufalin (derivatives 3, 5, 6, 7, 8, 9, 10, 11, 12, 13, 14, 16, 17, 18 and 25) and Lycorine (derivative 1, 2, 4, 15, 19, 20, 21, 22, 23, 24 and 26). Then, proliferation of HCFs was measured by BrdU-ELISA (see FIG. 31).
# [3] = Plasma markers of kidney and liver damage, angiotensin II model; assay type: in vivo, mice; details: Bufalin 0.5, Gitoxigenin 0.01, Lycorine 4.5, Anisomycin 10 mg/kg i.p. every other day; day 14
# Experimental: HF was induced in mice (Example 3) and Bufalin (0.5 mg/kg), Gitoxigenin (0.01 mg/kg), Lycorine (4.5 mg/kg), and Anisomycin (10 mg/kg) were injected as indicated in Example 3. Fourteen days after the operation, EDTA-plasma samples were drawn (n=2-3 per group) (see FIGS. 26 and 27).
Compound,E to A peak ratio (E/A) [1],Myocardial Performance Index (MPI) [1],isovolumetric relaxation time (IVRT) [1],proliferation of HCFs (derivative screen) [2],proliferation of primary HCFs [2],"plasma marker of kidney and liver damage (GOT, GPT, creatinine, urea) [3]"
C[C@]12CC[C@H](O)C[C@H]1CC[C@@H]1[C@@H]2CC[C@]2(C)[C@@H](c3ccc(=O)oc3)CC[C@]12O [Bufalin],increase,decrease,reduction,proliferation is prevented,Dose-dependent inhibitory effects,no elevation
C[C@]12CC[C@H](O)C[C@H]1CC[C@@H]1[C@@H]2CC[C@]2(C)[C@@H](C3=CC(=O)OC3)[C@@H](O)C[C@]12O [Gitoxigenin],increase,decrease,reduction,–,Dose-dependent inhibitory effects,no elevation
COc1ccc(C[C@H]2NC[C@H](O)[C@H]2OC(C)=O)cc1 [Anisomycin],increase,decrease,reduction,–,Dose-dependent inhibitory effects,no elevation
O[C@H]1[C@H]2c3cc4c(cc3CN3CCC(=C[C@@H]1O)[C@H]23)OCO4 [Lycorine],increase,decrease,reduction,proliferation is prevented,Dose-dependent inhibitory effects,no elevation
